From article PMC12455130, “Multifunctional molecular agent for tau-targeted combinational therapy of Alzheimer’s disease” (The Journal of Biological Chemistry, 2025)
pIC50: −log10 of the molar value.

Legend:
[1] = biological target: T1, tau peptide R3 (Homo sapiens, UniProt P10636); test: ThS assay, Cu2+-promoted heparin-induced R3 aggregation; format: biochemical; conditions: R3 15 μM, Cu2+ 3.8 μM, compound 10 μM, heparin 3.8 μM, 3 h
T1 construct: R3 (^306VQIVYK PVDLSK VTSKCG SLGNIH HKPGGG Q^336) and rabbit anti-tau antibody were purchased from MuJin; purchased MuJin
T1 sequence (P10636 623-653 limits assumed): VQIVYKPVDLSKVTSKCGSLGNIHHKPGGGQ
Source text: Metal ions, especially Cu^2+, are believed to be highly compatible with cysteine residues of tau peptide as a coordination center ([26]). Accompanied by the formation of intermolecular S–Cu–S bridging coordination bond, or intermolecular disulfide bond, these metal ions have been proven to promote tau aggregation ([27]). After confirming that 4GA and 2GA can effectively remove copper ions through coordination, we further explore their effects on R3 aggregation under the promotion of Cu^2+. […] Heparin was used to initiate the aggregation ([15]). […] As a comparison, the effects of the precursor compounds: 4ME, 3ME, 2ME, and 1ME, on Cu^2+-promoted R3 aggregation were also examined (Fig. S15).
Figure 5 Kinetic curves and TEM image of R3 aggregation with 4GA or 2GA.A, kinetic curves of the R3 (15 μM) aggregation monitored by ThS fluorescence assay in different conditions. B, ThS fluorescence intensity of R3 (15 μM) incubated for 3 h in different conditions. C, TEM image of R3 fibrils in different conditions. Negatively stained with uranyl acetate. Scale bar represents 200 nm. Final concentrations of R3, Cu^2+, and inhibitors are 15, 3.8, and 10 μM, respectively. All aggregations were initiated by heparin (3.8 μM). 2GA, (4,10-dimethyl-1,4,7,10-tetraazacyclododecane-1,7-diyl)bis((3,4,5-trihydroxyphenyl)methanone); 4GA, (1,4,7,10-tetraazacyclododecane-1,4,7,10-tetrayl)tetrakis((3,4,5-trihydroxyphenyl)methanone); TEM, transmission electron microscopy; ThS, thioflavin S.
The promotion of Cu^2+ on R3 aggregation was also inspected, similar to the aforementioned operation, unless that 3.8 μM Cu^2+ was also included, and using 50 mM Hepes (pH 7.4) as the buffer solution.
Fig. S15 ThS fluorescence intensity of R3 (15 µM) incubated for 3 h. Final concentrations of R3, Cu^2+, and compounds are 15, 3.8 and 10 µM, respectively. All aggregations were initiated by heparin (3.8 µM).

[2] = biological target: T1, tau peptide R3; test: ThS assay, heparin-induced R3 aggregation (kinetics and dose-response); format: biochemical; conditions: 80 μM compound, 15 μM R3, 3.8 μM heparin, 37 °C, 3 h
Method: The inhibition effect of 4GA–2GA on R3 aggregation was explored by thioflavin S (ThS) assay ([24]). In general, the kinetics of R3 aggregation in the absence or the presence of 4GA, 2GA was assessed by measuring the emission intensity of ThS at 500 nm, which reflects the amount of R3 aggregates. As the control experiments, the aggregation kinetics of 4ME and GA were also carried out. While induced by heparin, R3 aggregates rapidly at 37 °C, and the fluorescence of ThS reaches a maximum after an average time of 200 s (Fig. 4A). Based on the aforementioned conditions, the inhibitory ability of our synthetic compounds at three different concentrations (5, 10, and 40 μM) was tested.
Next, the dose–response inhibitory effects of our synthetic compounds on R3 aggregation were investigated. The detailed experimental operation was descripted in ESI. […] The apparent values of IC50 were calculated according to the dose−response curve.
Tau peptide R3 was adjusted to a concentration of 15 μM using 50 mM Tris−HCl buffer (pH 7.4), ThS (final concentration of 10 μM), and different amounts of 4GA, 2GA, 4ME, and GA (final concentration of 0, 5, 10, and 40 μM) as the aggregation inhibitor were added in1to the reaction mixture. Aggregation was induced by adding heparin to the solution (final concentration of 3.8 μM); the kinetics of each sample was immediately monitored by a fluorescence spectrophotometer with a 10-mm quartz cell at 440/500 nm (excitation/emission). A circulating water bath was necessary to maintain the temperature at 37 °C.
Tau peptide R3 was adjusted to a concentration of 15 μM using 50 mM Tris–HCl buffer (pH 7.4). Different amounts of 4GA, 2GA, 4ME, and GA (final concentration of 0, 1, 2, 4, 6, 10, 15, 20, 30, 40, 60, or 80 μM) as the aggregation inhibitors were added into the reaction mixture. Aggregation was induced by adding heparin to the solution (final concentration of 3.8 μM), After 3 h incubation at 37°C, ThS (final concentration of 10 μM) was added, and the fluorescence intensity at 440/500 nm (excitation/emission) was recorded on Hitachi F-7000 with a 10-mm quartz cell. The dose−response inhibitory effects of R3 aggregation were expressed by the aggregation percentage, which was calculated according to the following (Formula 4.3):(4.3) aggregation%=F-F0/Ft-F0×100
where F0 = fluorescence intensity of R3 monomer, Ft = fluorescence intensity of R3 aggregate, and F = fluorescence intensity of R3 aggregate in the presence of inhibitors. The IC50 values were also calculated according to the dose−response inhibitory effects.
Tau peptide R3 was adjusted to a concentration of 15 μM using Tris−HCl buffer (pH 7.4), and the synthetic compounds (4GA, 2GA, together with 4ME, GA as the comparison) at different concentrations, as aggregation inhibitor, were added into the reaction mixture separately. Aggregation was induced by heparin, and incubated at 37 °C for 3 h. By introducing fluorescence probe ThS, the dose−response inhibitory effects on R3 aggregation were recorded, according to normalized ThS fluorescence intensity (excitation: 440 nm, emission: 500 nm).
Figure S14. Inhibitory effects of N-substituted Azacrown on heparin-induced R3 aggregation, exermined by ThS fluorescence: 15 μM R3 and 3.8 μM heparin with cyclen, 1ME, 2ME, 3ME, and 4ME (80 μM) was incubated respectively at 37°C for 3h. 10 μM ThS was added to each of the solution, Spectra of ThS fluorescence were recorded at Ex440 nm.

[3] = biological target: T1, tau peptide R3; design: method as in PMID 23442089; conditions: reported earlier; read-out: IC50 on R3 aggregation; cited from earlier work
[4] = system: tau protein; conditions: cited from earlier work
[5] = design: method as in PMID 19496588; conditions: cited from earlier work

Compound | ThS fluorescence intensity of R3 aggregation in the presence of Cu2+ [1] | effect on heparin-induced R3 aggregation (ThS fluorescence at 500 nm) [2] | also measured
1,4,7-trimethyl-1,4,7,10-tetraazacyclododecane [2ME] | only to a level close to the case of R3 aggregation in the absence of Cu^2+ | did not hinder the aggregation of R3 peptides | 
tannic acid |  |  | pIC50 [3]: 5.46
CN1CCNCCNCCNCC1 [1ME, 1-methyl-1,4,7,10-tetraazacyclododecane] | only to a level close to the case of R3 aggregation in the absence of Cu^2+ | did not hinder the aggregation of R3 peptides | 
C=C(C)[C@@H]1CCC(C)=C[C@H]1c1c(O)cc(CCCCC)cc1O [cannabidiol] |  |  | binding ability to tau protein [4]: 42100 M⁻¹
C1CNCCNCCNCCN1 [cyclen, 1,4,7,10-tetraazacyclododecane] |  |  | log KCu-cyclen (thermodynamic stability) [5]: 24.8
Nc1nc(=O)c2nc(CNc3ccc(C(=O)N[C@@H](CCC(=O)O)C(=O)O)cc3)cnc2[nH]1 [folic acid] |  |  | binding ability to tau protein [4]: 230000 M⁻¹
CN1CCNCCN(C)CCN(C)CC1 [3ME, 1,4,7-trimethyl-1,4,7,10-tetraazacyclododecane] | only to a level close to the case of R3 aggregation in the absence of Cu^2+ | did not hinder the aggregation of R3 peptides | 
